Measured values from ChEMBL document CHEMBL1201862, “PubChem BioAssay data set” (2004).
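Grown in 96-well plates, cells were treated for 48 hours with each compound at five concentrations. Insufficient inhibition: endpoint recorded as highest concentration tested. GI50 = concentration required for 50% inhibition of growth.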 Active and inactive are the calls of the source. No stated cut-off is given here; in the data, active = GI50 up to about 1.1 µM and inactive = higher.

What was measured:
Experiment in all cases: NCI anticancer screen, dose series, 48 h
TK-10 = tested on: TK-10
M14 = tested on: M14
HCT-15 = tested on: HCT-15
SW-620 = tested on: SW-620
COLO 205 = tested on: COLO 205
UACC-62 = tested on: UACC-62
T47D = tested on: T47D
NCI-H23 = tested on: NCI-H23
SN12C = tested on: SN12C
UACC-257 = tested on: UACC-257
786-0 = tested on: 786-0
HCT-116 = tested on: HCT-116
SF-539 = tested on: SF-539
OVCAR-8 = tested on: OVCAR-8
OVCAR-5 = tested on: OVCAR-5
SNB-75 = tested on: SNB-75
NCI-H460 = tested on: NCI-H460
SF-295 = tested on: SF-295
MDA-N = tested on: MDA-N
NCI/ADR-RES = tested on: NCI/ADR-RES
SK-MEL-5 = tested on: SK-MEL-5
HOP-92 = tested on: HOP-92
MDA-MB-231 = tested on: MDA-MB-231
HCC 2998 = tested on: HCC 2998
U-251 = tested on: U-251
BT-549 = tested on: BT-549
A549 = tested on: A549
MCF7 = tested on: MCF7
UO-31 = tested on: UO-31
SK-OV-3 = tested on: SK-OV-3
HL-60 = tested on: HL-60
LOX IMVI = tested on: LOX IMVI
IGROV-1 = tested on: IGROV-1
KM12 = tested on: KM12
EKVX = tested on: EKVX
PC-3 = tested on: PC-3
OVCAR-4 = tested on: OVCAR-4
HOP-62 = tested on: HOP-62
SK-MEL-28 = tested on: SK-MEL-28
ACHN = tested on: ACHN
DU-145 = tested on: DU-145
MOLT-4 = tested on: MOLT-4
OVCAR-3 = tested on: OVCAR-3
SK-MEL-2 = tested on: SK-MEL-2
CAKI-1 = tested on: CAKI-1
SNB-19 = tested on: SNB-19
HT-29 = tested on: HT-29
MDA-MB-435 = tested on: MDA-MB-435
NCI-H226 = tested on: NCI-H226
NCI-H522 = tested on: NCI-H522
A498 = tested on: A498
RXF 393 = tested on: RXF 393
RPMI-8226 = tested on: RPMI-8226
K562 = tested on: K562
Malme-3M = tested on: Malme-3M
CCRF-CEM = tested on: CCRF-CEM

Measured: GI50

CCCCCCCCCCCCCCCCCCNC(=S)N/C=C1/C(=O)C=C(C)OC1=O
15.7 µM: HCT-15
inactive: TK-10 19.2 µM | M14 18 µM | SW-620 27.4 µM | COLO 205 27.7 µM | UACC-62 30.2 µM | T47D 31 µM | NCI-H23 22.8 µM | SN12C 37.8 µM | UACC-257 27.5 µM | 786-0 29.6 µM | HCT-116 30.1 µM | SF-539 24.3 µM | OVCAR-8 23.8 µM | OVCAR-5 18.4 µM | SNB-75 14.3 µM | NCI-H460 13.1 µM | SF-295 23.8 µM | MDA-N 36.4 µM | NCI/ADR-RES 28.6 µM | SK-MEL-5 29.6 µM | HOP-92 27.3 µM | MDA-MB-231 33 µM | HCC 2998 9.53 µM | U-251 31.3 µM | BT-549 19.1 µM | A549 25.9 µM | MCF7 29.9 µM | UO-31 16.9 µM | SK-OV-3 58.2 µM | HL-60 3.31 µM | LOX IMVI 36.9 µM | IGROV-1 16.9 µM | KM12 16.6 µM | EKVX 20.6 µM | PC-3 17 µM | OVCAR-4 23.7 µM | HOP-62 31.8 µM | SK-MEL-28 32.4 µM | ACHN 22.9 µM | DU-145 24.9 µM | MOLT-4 12.7 µM | OVCAR-3 32.1 µM | SK-MEL-2 21.4 µM | CAKI-1 23.4 µM | SNB-19 20.4 µM | HT-29 20.8 µM | MDA-MB-435 23.7 µM | NCI-H226 32.9 µM

FC1CCN(C2(c3cccs3)CCCCC2)CC1
inactive: TK-10 > 100 µM | M14 77.1 µM | SW-620 > 100 µM | COLO 205 > 100 µM | NCI-H522 > 100 µM | UACC-62 > 100 µM | T47D > 100 µM | NCI-H23 > 100 µM | SN12C > 100 µM | UACC-257 60.4 µM | 786-0 > 100 µM | HCT-116 > 100 µM | A498 > 100 µM | OVCAR-8 > 100 µM | OVCAR-5 > 100 µM | SNB-75 > 100 µM | NCI-H460 > 100 µM | SF-295 > 100 µM | RXF 393 > 100 µM | MDA-N > 100 µM | NCI/ADR-RES > 100 µM | RPMI-8226 56.5 µM | K562 > 100 µM | SK-MEL-5 > 100 µM | HOP-92 62.8 µM | MDA-MB-231 > 100 µM | HCC 2998 27.2 µM | U-251 > 100 µM | BT-549 > 100 µM | A549 > 100 µM | MCF7 > 100 µM | UO-31 > 100 µM | SK-OV-3 > 100 µM | HL-60 > 100 µM | LOX IMVI 96.6 µM | IGROV-1 > 100 µM | KM12 > 100 µM | EKVX > 100 µM | PC-3 > 100 µM | OVCAR-4 > 100 µM | HOP-62 > 100 µM | SK-MEL-28 > 100 µM | ACHN > 100 µM | Malme-3M 25.5 µM | DU-145 > 100 µM | MOLT-4 > 100 µM | OVCAR-3 > 100 µM | SK-MEL-2 > 100 µM | CAKI-1 > 100 µM | SNB-19 > 100 µM | HT-29 47.8 µM | MDA-MB-435 > 100 µM | NCI-H226 > 100 µM
> 100 µM: HCT-15

NC1CC(=O)c2cscc21 (stereo unspecified)
inactive: TK-10 19.1 µM | M14 31.1 µM | SW-620 17.6 µM | COLO 205 20.6 µM | T47D 19.6 µM | NCI-H23 > 100 µM | SN12C 27.6 µM | UACC-257 93.5 µM | 786-0 15.1 µM | HCT-116 67.5 µM | SF-539 37 µM | OVCAR-8 31 µM | OVCAR-5 > 100 µM | SNB-75 > 100 µM | NCI-H460 > 100 µM | SF-295 > 100 µM | RXF 393 > 100 µM | MDA-N > 100 µM | NCI/ADR-RES > 100 µM | RPMI-8226 4.46 µM | K562 42.1 µM | SK-MEL-5 > 100 µM | HOP-92 23 µM | MDA-MB-231 > 100 µM | U-251 > 100 µM | BT-549 58.9 µM | A549 14.1 µM | UO-31 10.3 µM | SK-OV-3 > 100 µM | HL-60 13.6 µM | LOX IMVI 31.8 µM | IGROV-1 > 100 µM | CCRF-CEM 16.3 µM | KM12 18.4 µM | EKVX > 100 µM | PC-3 52.7 µM | OVCAR-4 > 100 µM | HOP-62 > 100 µM | SK-MEL-28 37.3 µM | DU-145 91.4 µM | MOLT-4 20.6 µM | OVCAR-3 17.5 µM | SK-MEL-2 > 100 µM | CAKI-1 15.9 µM | SNB-19 53.3 µM | HT-29 > 100 µM | MDA-MB-435 24.1 µM
25.4 µM: HCT-15
